These results are taken from patent USRE40086E1, “Method for treating bacterial infection with novel 7-substituted-9-substituted amino 6-demethyl-6-deoxytetracyclines” (Wyeth Holdings Corporation, priority 1991, dated 2008).

Molecules are shown by their SMILES. Counter-ions that a name gives are not always drawn.

Common to all, as to assay type: cell-based
In assay [1] the test system is Salmonella spp. (Clinical). To be noted: [11] tested.
Another assay relates to Providencia spp. The assay is described as follows: MIC vs recent clinical and agricultural isolates (Table V, KK). To be noted: [13] tested.
The test system of a further assay is E. coli J2175. The assay is described as follows: MIC, agar dilution (Table IA). To be noted: unit assumed.
Another assay concerns E. coli UBMS 90-5. Put plainly: MIC, agar dilution (Table IA). As to conditions: unit assumed.
The test system of assay [2] is Ps. acruginosa ATCC 27853. Put plainly: MIC, agar dilution (Table IA). As to conditions: unit assumed.
The test system of the next assay is S. aureus NEMC 8769/89-4. The assay is described as follows: MIC, agar dilution (Table IA). To be noted: unit assumed.
The subject of a further assay is S. aureus ROSE (MP). Put plainly: MIC, agar dilution (Table IA). As to conditions: unit assumed.
The test system of assay [3] is N. gonorrhoeae IL 611 (Sensitive). Put plainly: MIC, agar dilution. To be noted: Neisseria gonorrhoeae; N. gonorrhoeae IL 611 (Sensitive); read-out: MIC.
Assay [4] deals with E. faecalis UBMS 90-6 (tetM). Put plainly: MIC, agar dilution. To be noted: Enterococcus faecalis.
The test system of another assay is Escherichia coli. The assay is described as follows: MIC against clinical isolates (Table V, A and O). As to conditions: Escherichia coli clinical isolates, (10) tested.

Turning to `CN(C)CC(=O)Nc1cc(N(C)C)c2c(c1O)C(=O)C1=C(O)[C@]3(O)C(=O)C(C(N)=O)=C(O)[C@@H](N(C)C)C3CC1C2.Cl.Cl` (stereo partly drawn) [KK, [4S-(4alpha,12aalpha)]-4,7-Bis(dimethylamino)-9-[[(dimethylamino)acetyl]amino]-1,4,4a,5,5a,6,11,12a-octahydro-3,10,12,12a-tetrahydroxy-1,11-dioxo-2-naphthacenecarboxamide dihydrochloride], the “MIC (range over isolates)” value in assay [1] was 0.25 to 0.5 µg/mL; against Providencia spp. it was 2 to 8 µg/mL. Further, the Antibacterial activity (MIC) in the assay with E. coli J2175 came to 0.25 µg/mL; in the assay with E. coli UBMS 90-5 it was 0.25 µg/mL; in [2] it was 4 µg/mL; in the assay on S. aureus NEMC 8769/89-4, 0.06 µg/mL; with S. aureus ROSE (MP) it was 1 µg/mL.
Regarding `CN(C)c1ccc(O)c2c1C[C@H]1C[C@H]3[C@H](N(C)C)C(O)=C(C(N)=O)C(=O)[C@@]3(O)C(O)=C1C2=O` [Compound O, 7-(Dimethylamino)-6-demethyl-6-deoxytetracycline hydrochloride (minocycline hydrochloride), reference compound], the results for the MIC in assay [3] and in assay [4] were 0.5 µg/mL and 8 µg/mL, respectively. Moreover, the “MIC Range” value in the assay on Escherichia coli is 0.12 to 32.00 µg/mL. The MIC50 in the assay on Escherichia coli (read-out: MIC50) was found to be 0.25 µg/mL. The MIC90 in the assay with Escherichia coli (read-out: MIC90) came to 16 µg/mL.
